Measurements as given in patent US20150272951A1, “COMPOUNDS FOR THE TREATMENT OF LYSOSOMAL STORAGE DISEASES” (The Hospital for Sick Children, priority 2010, published 2015).

target: Hex A (Homo sapiens, UniProt P06865+P07686); test: Hex A inhibition (IC50 from dose response curves of Hex A residual activity); settings: IC50 (μM ± Err), in brackets, brackets: IC50 extrapolated from an incomplete dose response curve;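 note: remaining Hex A enzyme activity recorded across rising inhibitor doses, with dose response curves run at pH 6.5 and again at pH 4.5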
Sequence (P06865 89-529): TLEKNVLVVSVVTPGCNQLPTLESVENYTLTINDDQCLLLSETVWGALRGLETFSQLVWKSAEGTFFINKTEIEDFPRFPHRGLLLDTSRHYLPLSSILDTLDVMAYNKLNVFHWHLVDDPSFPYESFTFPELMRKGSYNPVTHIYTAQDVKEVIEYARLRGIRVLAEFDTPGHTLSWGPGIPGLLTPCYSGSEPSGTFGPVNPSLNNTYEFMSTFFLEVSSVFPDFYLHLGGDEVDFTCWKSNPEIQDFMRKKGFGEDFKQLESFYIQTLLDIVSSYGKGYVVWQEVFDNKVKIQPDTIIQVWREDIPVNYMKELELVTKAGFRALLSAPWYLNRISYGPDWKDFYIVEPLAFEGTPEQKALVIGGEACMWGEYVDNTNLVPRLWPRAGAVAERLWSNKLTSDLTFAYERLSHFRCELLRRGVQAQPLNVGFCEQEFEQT
Sequence (P07686 122-311 limits assumed): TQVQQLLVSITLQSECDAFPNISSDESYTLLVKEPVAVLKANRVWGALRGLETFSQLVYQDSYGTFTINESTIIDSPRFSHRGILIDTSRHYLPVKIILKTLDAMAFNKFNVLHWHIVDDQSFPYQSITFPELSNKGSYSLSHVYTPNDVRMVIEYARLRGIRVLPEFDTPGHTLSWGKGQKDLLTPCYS
Sequence (P07686 315-556 limits assumed): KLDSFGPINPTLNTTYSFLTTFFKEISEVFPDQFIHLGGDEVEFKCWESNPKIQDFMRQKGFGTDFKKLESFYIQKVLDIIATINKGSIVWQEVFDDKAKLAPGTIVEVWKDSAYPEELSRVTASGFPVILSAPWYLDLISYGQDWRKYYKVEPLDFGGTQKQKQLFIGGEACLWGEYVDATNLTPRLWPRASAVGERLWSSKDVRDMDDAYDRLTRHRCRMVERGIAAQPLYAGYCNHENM
Method: The NINDS library was screened for compounds having Hex A inhibitory activity.
Experiments were performed using 1.6 mM 4-methylumbelliferone-b-N-Acetylglucosamine substrate.

SMILES | IC50 [µM]
CCc1ncnc(N)c1-c1ccc(C(F)(F)F)cc1 [vsa6] | 936
CCc1ncncc1-c1ccc(C(F)(F)F)cc1 [vsa4] | 2110
CCCCc1nc(N)nc(N)c1-c1ccc(Cl)cc1 [zjm1-91] | 1360
CCC1=C(c2ccc(Cl)cc2)C(N)=NCN1 [vsa8] | 967
Cc1ccc(-c2c(C)nc(N)nc2N)cc1 [ksh3-14b] | 1720
Cc1cc(C)cc(-c2c(C)nc(N)nc2N)c1 [ksh3-14e] | 1230
Cc1nc(N)nc(N)c1-c1ccc(F)cc1 [ksh3-14a] | 923
CCCCc1nc(N)nc(N)c1-c1ccc(C)cc1 [zjm1-111] | 600

The remaining lines, values ahead:

IC50 [µM] | SMILES
10400 | Cc1cccc(-c2c(C)nc(N)nc2N)c1 [ksh3-14d]
3830 | Cc1ccc(-c2c(C)nc(N)nc2N)cc1 [ksh3-14c]
1230 | Cc1nc(N)nc(N)c1-c1ccccc1 [ksh3-05]
870 | CCCCc1nc(N)nc(N)c1-c1ccc(OC)cc1 [zjm1-113]
825 | CCCc1nc(N)nc(N)c1-c1ccccc1C [ksh3-33c]
400 | CCc1[nH]c(=O)nc(N)c1-c1ccc(Cl)cc1 [vsa9]

same assay, conditions: IC50 (μM), compounds with bracketed IC50; extrapolated from an incomplete dose response curve

SMILES | IC50 [µM]
CCc1ncnc(N)c1-c1ccc(C(F)(F)F)cc1 [vsa6] | 936
CCCCc1nc(N)nc(N)c1-c1ccc(Cl)cc1 [zjm1-91] | 1360
CCC1=C(c2ccc(Cl)cc2)C(N)=NCN1 [vsa8] | 967
Cc1ccc(-c2c(C)nc(N)nc2N)cc1 [ksh3-14b] | 1720
Cc1cc(C)cc(-c2c(C)nc(N)nc2N)c1 [ksh3-14e] | 1230
Cc1nc(N)nc(N)c1-c1ccc(F)cc1 [ksh3-14a] | 923
CCCCc1nc(N)nc(N)c1-c1ccc(C)cc1 [zjm1-111] | 600

Further lines, results first:

IC50 [µM] | SMILES
3830 | Cc1ccc(-c2c(C)nc(N)nc2N)cc1 [ksh3-14c]
1230 | Cc1nc(N)nc(N)c1-c1ccccc1 [ksh3-05]
870 | CCCCc1nc(N)nc(N)c1-c1ccc(OC)cc1 [zjm1-113]

same assay, conditions: IC50 (μM), without error; pH not stated

SMILES | IC50 [µM]
CCc1nc(N)nc(N)c1-c1ccc(C(F)(F)F)cc1 [vsa5] | 14.7
CCc1nc(N)nc(N)c1-c1cccc(C)c1 [ksh3-19d] | 34.5

same assay, conditions: pH dependence of Hex A inhibition

SMILES | pKHA
CC1=N[C@@H]2[C@@H](O)[C@H](O)[C@@H](CO)O[C@@H]2S1 [NGT, NAG-thiazoline, reference compound] | 4.5

same assay, conditions: read-out: IC50 (μM ± Err); Hex A inhibition, values determined in Example 3; pH not given

SMILES | IC50 [µM]
CCc1nc(N)nc(N)c1-c1ccc(C(F)(F)F)cc1 [vsa5] | 15 ± 1
CCCc1nc(N)nc(N)c1-c1ccc(Cl)cc1 [zjm1-135] | 18 ± 1
CCc1nc(N)nc(N)c1-c1cc(C)cc(C)c1 [ksh3-19e] | 47 ± 1
CCc1nc(N)nc(N)c1-c1cccc(C)c1 [ksh3-19d] | 34 ± 1

same assay, conditions: without error; pH not stated

SMILES | IC50 [µM]
CCCc1nc(N)nc(N)c1-c1ccc(Cl)cc1 [zjm1-135] | 17.9
CCc1nc(N)nc(N)c1-c1cc(C)cc(C)c1 [ksh3-19e] | 47.4

target: mutant Hex A (Homo sapiens, UniProt P06865+P07686); test: not given; assay type: cell-based; settings: Hex A rescue, determined from graphs of FIGS. 5-7
Method: Using the graphs of FIGS. 5-7, the EC50 values for Hex A rescue were determined as well as the maximum increase and range of increase in Hex A activity. These values are tabulated in Table 2, together with the IC50 values for Hex A inhibition that were determined in Example 3.

SMILES | EC50 [µM]
CCc1nc(N)nc(N)c1-c1ccc(C(F)(F)F)cc1 [vsa5] | 2.24
CCCc1nc(N)nc(N)c1-c1ccc(Cl)cc1 [zjm1-135] | 7.14
CCc1nc(N)nc(N)c1-c1cc(C)cc(C)c1 [ksh3-19e] | 16.4
CCc1nc(N)nc(N)c1-c1cccc(C)c1 [ksh3-19d] | 6.67

same assay, conditions: maximum increase in Hex A activity relative to untreated cells (=1)

SMILES | Max Increase
CCc1nc(N)nc(N)c1-c1ccc(C(F)(F)F)cc1 [vsa5] | 1.4
CCCc1nc(N)nc(N)c1-c1ccc(Cl)cc1 [zjm1-135] | 1.4
CCc1nc(N)nc(N)c1-c1cc(C)cc(C)c1 [ksh3-19e] | 2.2
CCc1nc(N)nc(N)c1-c1cccc(C)c1 [ksh3-19d] | 2.1

same assay, conditions: range of increase in Hex A activity

SMILES | Range of Increase
CCc1nc(N)nc(N)c1-c1ccc(C(F)(F)F)cc1 [vsa5] | 3
CCCc1nc(N)nc(N)c1-c1ccc(Cl)cc1 [zjm1-135] | 3
CCc1nc(N)nc(N)c1-c1cc(C)cc(C)c1 [ksh3-19e] | 3
CCc1nc(N)nc(N)c1-c1cccc(C)c1 [ksh3-19d] | 5
